Measurements reported in BindingDB's records for doi:10.1124/jpet.103.049395 (Lcg Bioscience, 2003).
Where a SMILES comes first, the peptide text is derived from it. Bridges are numbered along the chain shown (N, C = ends). [ ]: non-standard residue; d: D form. Orn = NCCC[C@H](N)C(=O)O; Mpa = O=C(O)CCS

Tests used:
Vasopressin V1a receptor = Vasopressin V1a receptor (Homo sapiens, UniProt P37288)
Vasopressin V1b receptor = biological target: T1, Vasopressin V1b receptor (Homo sapiens, UniProt P47901)
T1 sequence (P47901 whole entry): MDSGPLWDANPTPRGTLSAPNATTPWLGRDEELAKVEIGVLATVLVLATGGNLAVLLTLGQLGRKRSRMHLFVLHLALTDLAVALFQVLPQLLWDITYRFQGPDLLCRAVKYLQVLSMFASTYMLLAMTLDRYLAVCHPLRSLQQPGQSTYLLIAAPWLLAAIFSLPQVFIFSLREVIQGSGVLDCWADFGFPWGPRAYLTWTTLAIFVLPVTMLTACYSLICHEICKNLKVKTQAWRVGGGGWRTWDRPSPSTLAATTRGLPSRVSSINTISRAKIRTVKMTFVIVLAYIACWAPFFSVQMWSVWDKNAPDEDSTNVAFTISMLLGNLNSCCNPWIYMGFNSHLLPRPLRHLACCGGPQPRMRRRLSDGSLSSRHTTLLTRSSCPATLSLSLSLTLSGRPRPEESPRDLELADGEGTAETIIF

Oxytocin receptor [1] = biological target: T2, Oxytocin receptor (Homo sapiens, UniProt P30559)
T2 sequence (P30559 whole entry): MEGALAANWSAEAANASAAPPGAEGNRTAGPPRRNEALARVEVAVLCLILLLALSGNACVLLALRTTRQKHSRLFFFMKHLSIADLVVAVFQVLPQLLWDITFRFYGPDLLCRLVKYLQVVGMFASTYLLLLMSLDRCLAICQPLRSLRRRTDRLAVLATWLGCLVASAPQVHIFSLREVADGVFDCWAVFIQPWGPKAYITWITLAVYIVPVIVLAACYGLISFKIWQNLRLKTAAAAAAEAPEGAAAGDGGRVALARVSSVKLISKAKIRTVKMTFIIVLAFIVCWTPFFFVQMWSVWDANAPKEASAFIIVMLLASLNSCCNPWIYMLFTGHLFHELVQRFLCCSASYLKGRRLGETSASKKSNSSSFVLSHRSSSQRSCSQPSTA

Vasopressin V2 receptor = Vasopressin V2 receptor (Homo sapiens, UniProt P30518)
Oxytocin receptor [2] = biological target: T3, Oxytocin receptor (Rattus norvegicus, UniProt P70536)
T3 sequence (P70536 whole entry): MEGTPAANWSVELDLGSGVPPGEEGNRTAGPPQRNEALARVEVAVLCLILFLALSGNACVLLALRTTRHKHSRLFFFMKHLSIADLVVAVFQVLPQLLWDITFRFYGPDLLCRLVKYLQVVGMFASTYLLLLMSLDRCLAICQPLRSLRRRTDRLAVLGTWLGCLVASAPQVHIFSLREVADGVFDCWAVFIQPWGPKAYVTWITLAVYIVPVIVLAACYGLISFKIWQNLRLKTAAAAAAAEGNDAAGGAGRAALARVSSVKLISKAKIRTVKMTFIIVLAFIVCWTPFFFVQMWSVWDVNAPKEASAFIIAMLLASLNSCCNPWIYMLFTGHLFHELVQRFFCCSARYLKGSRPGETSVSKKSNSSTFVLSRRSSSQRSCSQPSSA

Sequence of Vasopressin V1a receptor (P37288 whole entry): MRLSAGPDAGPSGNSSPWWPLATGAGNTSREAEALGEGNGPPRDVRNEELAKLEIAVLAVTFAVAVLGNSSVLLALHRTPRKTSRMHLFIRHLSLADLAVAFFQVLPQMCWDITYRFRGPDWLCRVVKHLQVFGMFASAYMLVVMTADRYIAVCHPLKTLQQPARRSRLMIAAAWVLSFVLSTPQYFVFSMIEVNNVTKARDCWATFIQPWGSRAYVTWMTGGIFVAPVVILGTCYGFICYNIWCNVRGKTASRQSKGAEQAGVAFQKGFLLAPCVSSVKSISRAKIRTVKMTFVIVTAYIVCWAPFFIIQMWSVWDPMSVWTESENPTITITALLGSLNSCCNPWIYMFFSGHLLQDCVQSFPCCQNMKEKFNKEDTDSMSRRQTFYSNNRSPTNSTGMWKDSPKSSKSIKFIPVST
Sequence of Vasopressin V2 receptor (P30518 whole entry): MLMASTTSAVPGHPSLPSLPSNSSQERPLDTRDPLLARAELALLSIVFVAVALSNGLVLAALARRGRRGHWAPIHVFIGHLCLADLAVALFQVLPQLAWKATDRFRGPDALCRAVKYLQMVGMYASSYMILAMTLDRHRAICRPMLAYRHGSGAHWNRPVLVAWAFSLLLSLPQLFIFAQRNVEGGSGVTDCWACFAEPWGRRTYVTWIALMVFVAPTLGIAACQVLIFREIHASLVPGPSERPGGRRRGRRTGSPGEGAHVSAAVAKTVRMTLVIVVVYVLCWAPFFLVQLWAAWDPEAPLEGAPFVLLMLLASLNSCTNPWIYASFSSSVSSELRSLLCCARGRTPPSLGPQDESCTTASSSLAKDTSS

Work on `CCOc1ccc(C[C@H]2NC(=O)CCSSC[C@@H](C(=O)N3CCC[C@H]3C(=O)N[C@@H](CCCN)C(=O)NCC(N)=O)NC(=O)[C@H](CC(N)=O)NC(=O)[C@H]([C@@H](C)O)NC(=O)[C@H]([C@@H](C)CC)NC2=O)cc1` [CAS_90779-69-4] ([Mpa][dY](Et)ITNCP[Orn]G-NH2; disulfide 1-6) yielded a Ki (Vasopressin V1a receptor) of 3.5 nM, a Ki (Vasopressin V1b receptor) of 657 nM and a Ki (Oxytocin receptor [1]) of 81 nM. It also gave a Ki (Vasopressin V2 receptor) of 954 nM.
Compound `CO/N=C1/C[C@@H](C(=O)NC[C@@H](O)c2ccccc2)N(C(=O)c2ccc(-c3ccccc3C)cc2)C1` [(2S,4Z)-N-[(2S)-2-hydroxy-2-phenylethyl]-4-(methoxyimino)-1-[(2'-methyl[1,1'-biphenyl]-4-yl)carbonyl]-2-pyrrolidinecarboxamide] has a Ki (Vasopressin V1a receptor) of 170 nM, a Ki (Vasopressin V1b receptor) greater than 10000 nM and a Ki (Oxytocin receptor [1]) of 17 nM. It also gave a Ki (Oxytocin receptor [2]) of 135 nM and a Ki (Vasopressin V2 receptor) greater than 10000 nM.
